Measured values taken from patent US8461083B2, “Herbicidal compounds” (Syngenta Limited, priority 2008, dated 2013).

How the values were obtained:
Assay type in all cases: in vivo
[1] = test system: Alopecurus myosuroides (ALOMY); experiment: Pre-emergence herbicidal glasshouse test; settings: pre-emergence (sprayed after one day cultivation), evaluated after 13 days, 100=total damage to plant, 0=no damage to plant; for PRE Application ALOMY, damage to plant: 1000 g/ha; for pest or weed control at 1000 g/ha: Alopecurus myosuroides, 312 h, read-out: PRE Application ALOMY, damage to plant
Description: (§1) Seeds of a variety of test species were sown in standard soil in pots (Alopecurus myosuroides (ALOMY), Setaria faberi (SETFA), Echinochloa crus-galli (ECHCG), Solanum nigrum (SOLNI) and Amaranthus retoflexus (AMARE)). After cultivation for one day (pre-emergence) or after 8 days cultivation (post-emergence) under controlled conditions in a glasshouse (at 24/16° C., day/night; 14 hours light; 65% humidity), the plants were sprayed with an aqueous spray solution derived from the formulation of the technical active ingredient in acetone/water (50:50) solution containing 0.5% Tween 20 (polyoxyethelyene sorbitan monolaurate, CAS RN 9005-64-5). Compounds were applied at 1000 g/ha. The test plants were then grown in a glasshouse under controlled conditions in a glasshouse (at 24/16° C., day/night; 14 hours light; 65% humidity) and watered twice daily. After 13 days for pre and post-emergence, the test was evaluated (100=total damage to plant; 0=no damage to plant).

[2] = test system: Amaranthus retoflexus (AMARE); experiment: Pre-emergence herbicidal glasshouse test; settings: pre-emergence (sprayed after one day cultivation), evaluated after 13 days, 100=total damage to plant, 0=no damage to plant; for PRE Application AMARE, damage to plant: 1000 g/ha; for pest or weed control at 1000 g/ha: Amaranthus retroflexus, 312 h, read-out: PRE Application AMARE, damage to plant
Description: as §1

[3] = test system: Echinochloa crus-galli (ECHCG); experiment: Pre-emergence herbicidal glasshouse test; settings: pre-emergence (sprayed after one day cultivation), evaluated after 13 days, 100=total damage to plant, 0=no damage to plant; for PRE Application ECHCG, damage to plant: 1000 g/ha; for pest or weed control at 1000 g/ha: Echinochloa crus-galli, 312 h, read-out: PRE Application ECHCG, damage to plant
Description: as §1

Solanum nigrum (SOLNI) [4] = experiment: Pre-emergence herbicidal glasshouse test; settings: pre-emergence (sprayed after one day cultivation), evaluated after 13 days, 100=total damage to plant, 0=no damage to plant; for PRE Application SOLNI, damage to plant: 1000 g/ha; for pest or weed control at 1000 g/ha: Solanum nigrum, 312 h, read-out: PRE Application SOLNI, damage to plant
Description: as §1

Setaria faberi (SETFA) [5] = experiment: Pre-emergence herbicidal glasshouse test; settings: pre-emergence (sprayed after one day cultivation), evaluated after 13 days, 100=total damage to plant, 0=no damage to plant; for PRE Application SETFA, damage to plant: 1000 g/ha; for pest or weed control at 1000 g/ha: Setaria faberi, 312 h, read-out: PRE Application SETFA, damage to plant
Description: as §1

[6] = test system: Alopecurus myosuroides (ALOMY); experiment: Post-emergence herbicidal glasshouse test; settings: post-emergence (sprayed after 8 days cultivation), evaluated after 13 days, 100=total damage to plant, 0=no damage to plant; for POST Application ALOMY, damage to plant: 1000 g/ha; for pest or weed control at 1000 g/ha: Alopecurus myosuroides, 312 h, read-out: POST Application ALOMY, damage to plant
Description: as §1

[7] = test system: Amaranthus retoflexus (AMARE); experiment: Post-emergence herbicidal glasshouse test; settings: post-emergence (sprayed after 8 days cultivation), evaluated after 13 days, 100=total damage to plant, 0=no damage to plant; for POST Application AMARE, damage to plant: 1000 g/ha; for pest or weed control at 1000 g/ha: Amaranthus retroflexus, 312 h, read-out: POST Application AMARE, damage to plant
Description: as §1

[8] = test system: Echinochloa crus-galli (ECHCG); experiment: Post-emergence herbicidal glasshouse test; settings: post-emergence (sprayed after 8 days cultivation), evaluated after 13 days, 100=total damage to plant, 0=no damage to plant; for POST Application ECHCG, damage to plant: 1000 g/ha; for pest or weed control at 1000 g/ha: Echinochloa crus-galli, 312 h, read-out: POST Application ECHCG, damage to plant
Description: as §1

Solanum nigrum (SOLNI) [9] = experiment: Post-emergence herbicidal glasshouse test; settings: post-emergence (sprayed after 8 days cultivation), evaluated after 13 days, 100=total damage to plant, 0=no damage to plant; for POST Application SOLNI, damage to plant: 1000 g/ha; for pest or weed control at 1000 g/ha: Solanum nigrum, 312 h, read-out: POST Application SOLNI, damage to plant
Description: as §1

Setaria faberi (SETFA) [10] = experiment: Post-emergence herbicidal glasshouse test; settings: post-emergence (sprayed after 8 days cultivation), evaluated after 13 days, 100=total damage to plant, 0=no damage to plant; for POST Application SETFA, damage to plant: 1000 g/ha; for pest or weed control at 1000 g/ha: Setaria faberi, 312 h, read-out: POST Application SETFA, damage to plant
Description: as §1

**Q.** What does the source list for `CCN(C)c1nc2nc(C(F)(F)F)c(C(=O)C3C(=O)CCCC3=O)cc2cc1F` [Compound 1.81, 2-[6-fluoro-7-(N-methylethylamino)-2-trifluoromethyl-[1,8]-naphthyridine-3-carbony]-cyclohexane-1,3-dione]?
**A.** PRE Application ALOMY, damage to plant [1]: 70; PRE Application AMARE, damage to plant [2]: 100; PRE Application ECHCG, damage to plant [3]: 100; PRE Application SOLNI, damage to plant (Solanum nigrum (SOLNI) [4]): 100; PRE Application SETFA, damage to plant (Setaria faberi (SETFA) [5]): 100; POST Application ALOMY, damage to plant [6]: 70; POST Application AMARE, damage to plant [7]: 90; POST Application ECHCG, damage to plant [8]: 90; POST Application SOLNI, damage to plant (Solanum nigrum (SOLNI) [9]): 80; POST Application SETFA, damage to plant (Setaria faberi (SETFA) [10]): 80

**Q.** Which “PRE Application ALOMY, damage to plant” value [1] does the source give for `COCCNc1nc2nc(C(F)(F)F)c(C(=O)C3C(=O)CCCC3=O)cc2cc1F` [Compound 1.83, 2-[6-fluoro-7-(2-methoxyethylamino)-2-trifluoromethyl-[1,8]-naphthyridine-3-carbony]-cyclohexane-1,3-dione] here?
**A.** 60

**Q.** What about the “PRE Application AMARE, damage to plant” value [2] of the same compound?
**A.** 100

**Q.** And the “PRE Application ECHCG, damage to plant” value [3]?
**A.** 100

**Q.** What about the “PRE Application SOLNI, damage to plant” value (Solanum nigrum (SOLNI) [4]) of the same compound?
**A.** 100

**Q.** What about the “PRE Application SETFA, damage to plant” value (Setaria faberi (SETFA) [5]) of the same compound?
**A.** 100

**Q.** And the “POST Application ALOMY, damage to plant” value [6]?
**A.** 80

**Q.** And the “POST Application AMARE, damage to plant” value [7]?
**A.** 80

**Q.** And the “POST Application ECHCG, damage to plant” value [8]?
**A.** 80

**Q.** What about the “POST Application SOLNI, damage to plant” value (Solanum nigrum (SOLNI) [9]) of the same compound?
**A.** 80

**Q.** What about the “POST Application SETFA, damage to plant” value (Setaria faberi (SETFA) [10]) of the same compound?
**A.** 80

**Q.** With `CCNc1nc2nc(C(F)(F)F)c(C(=O)C3C(=O)CCCC3=O)cc2cc1F` [Compound 1.84] as the compound, how does the pest or weed control at 1000 g/ha [1] read?
**A.** 60%

**Q.** What about the pest or weed control at 1000 g/ha [2] of the same compound?
**A.** 100%

**Q.** What about the pest or weed control at 1000 g/ha [3] of the same compound?
**A.** 100%

**Q.** What about the pest or weed control at 1000 g/ha (Solanum nigrum (SOLNI) [4]) of the same compound?
**A.** 100%

**Q.** What about the pest or weed control at 1000 g/ha (Setaria faberi (SETFA) [5]) of the same compound?
**A.** 100%

**Q.** And the pest or weed control at 1000 g/ha [6]?
**A.** 70%

**Q.** And the pest or weed control at 1000 g/ha [7]?
**A.** 80%

**Q.** And the pest or weed control at 1000 g/ha [8]?
**A.** 80%

**Q.** What about the pest or weed control at 1000 g/ha (Solanum nigrum (SOLNI) [9]) of the same compound?
**A.** 80%

**Q.** And the pest or weed control at 1000 g/ha (Setaria faberi (SETFA) [10])?
**A.** 80%

**Q.** What does the source list for `Cc1ccc2cc(C(=O)C3C(=O)CCCC3=O)c(C(F)F)nc2n1` [Compound 1.85, 2-(2-difluoromethyl-7-methyl-[1,8]-naphthyridine-3-carbonyl)-cyclohexane-1,3-dione]?
**A.** pest or weed control at 1000 g/ha [1]: 10%; pest or weed control at 1000 g/ha [2]: 90%; pest or weed control at 1000 g/ha [3]: 100%; pest or weed control at 1000 g/ha (Solanum nigrum (SOLNI) [4]): 100%; pest or weed control at 1000 g/ha (Setaria faberi (SETFA) [5]): 80%; pest or weed control at 1000 g/ha [6]: 50%; pest or weed control at 1000 g/ha [7]: 80%; pest or weed control at 1000 g/ha [8]: 80%; pest or weed control at 1000 g/ha (Solanum nigrum (SOLNI) [9]): 80%; pest or weed control at 1000 g/ha (Setaria faberi (SETFA) [10]): 80%

**Q.** With `CCCCc1nc2nc(C(F)(F)F)c(C(=O)C3C(=O)CCCC3=O)cc2cc1F` [Compound 1.86, 2-[7-butyl-6-fluoro-2-trifluoromethyl-[1,8]-naphthyridine-3carbony]-cyclohexane-1,3-dione] as the compound, how does the pest or weed control at 1000 g/ha [1] read?
**A.** 80%

**Q.** What about the pest or weed control at 1000 g/ha [2] of the same compound?
**A.** 100%

**Q.** What about the pest or weed control at 1000 g/ha [3] of the same compound?
**A.** 100%

**Q.** And the pest or weed control at 1000 g/ha (Solanum nigrum (SOLNI) [4])?
**A.** 100%

**Q.** And the pest or weed control at 1000 g/ha (Setaria faberi (SETFA) [5])?
**A.** 100%

**Q.** And the pest or weed control at 1000 g/ha [6]?
**A.** 70%

**Q.** What about the pest or weed control at 1000 g/ha [7] of the same compound?
**A.** 100%

**Q.** What about the pest or weed control at 1000 g/ha [8] of the same compound?
**A.** 80%

**Q.** And the pest or weed control at 1000 g/ha (Solanum nigrum (SOLNI) [9])?
**A.** 90%

**Q.** What about the pest or weed control at 1000 g/ha (Setaria faberi (SETFA) [10]) of the same compound?
**A.** 90%

**Q.** Which “PRE Application ALOMY, damage to plant” value [1] does the source give for `Cc1nc2nc(C(F)(F)Cl)c(C(=O)C3C(=O)CCCC3=O)cc2cc1F` [Compound 1.87, 2-(2-chlorodifluoromethyl-6-fluoro-7-methyl-[1,8]-naphthyridine-3-carbonyl)-cyclohexane-1,3-dione] here?
**A.** 60

**Q.** And the “PRE Application AMARE, damage to plant” value [2]?
**A.** 100

**Q.** And the “PRE Application ECHCG, damage to plant” value [3]?
**A.** 100

**Q.** What about the “PRE Application SOLNI, damage to plant” value (Solanum nigrum (SOLNI) [4]) of the same compound?
**A.** 100

**Q.** What about the “PRE Application SETFA, damage to plant” value (Setaria faberi (SETFA) [5]) of the same compound?
**A.** 100

**Q.** And the “POST Application ALOMY, damage to plant” value [6]?
**A.** 70

**Q.** And the “POST Application AMARE, damage to plant” value [7]?
**A.** 80

**Q.** What about the “POST Application ECHCG, damage to plant” value [8] of the same compound?
**A.** 90

**Q.** What about the “POST Application SOLNI, damage to plant” value (Solanum nigrum (SOLNI) [9]) of the same compound?
**A.** 90

**Q.** What about the “POST Application SETFA, damage to plant” value (Setaria faberi (SETFA) [10]) of the same compound?
**A.** 80
